17 compounds from patent US11753407B2, “Compounds for treating spinal muscular atrophy” (PTC Therapeutics, Inc., priority 2012, dated 2023) can be followed below.

In data set [1] the test system is Smn protein in SMA patient fibroblast cells (GM03813). As to the kind of experiment: Smn protein assay in cultured cells (SMN HTRF). Type of data set: cell-based, human. To be noted: SMA patient fibroblast cells, 48 hours; for maximum fold (Fold) increase of Smn protein: 7-point concentration data, fold relative to vehicle control; for EC1.5x for Smn protein expression: 7-point concentration curve, SMN HTRF, concentration producing 1.5 times Smn protein vs DMSO vehicle control. The method in brief:
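Patient-derived SMA fibroblasts are plated, given compound for 48 h, then lysed in RIPA buffer with protease inhibitors. Lysate Smn is detected by an anti-SMN d2/kryptate HTRF pair incubated overnight. The normalized ΔF is divided by the vehicle ΔF to give fold change, from which EC1.5× and maximum fold are taken.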
For orientation: In TR-FRET formats the signal depends on donor and acceptor labels being close together.

Data set [2] deals with SMN2 minigene mRNA (SMN2-A minigene) in HEK293H cells. Nature of the data set: SMN2 minigene mRNA splicing RT-qPCR assay in cultured cells. It is filed as cell-based, human. To be noted: Homo sapiens, HEK293-H; concentration increasing full length SMN2 mRNA 1.5-fold relative to vehicle-treated cells; HEK293H cells with SMN2-A minigene, 24 hours, 7-point concentration data; read-out: EC1.5x for production of full length SMN2 mRNA. The method in brief: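 Cells are seeded, left to attach 4-6 h, then dosed with test compound across seven concentrations and incubated 24 h. Lysates undergo RT-qPCR with primers/probe specific to the exon 7-containing minigene transcript, co-amplified with GAPDH. Fold change over vehicle is calculated, and EC1.5× marks the 1.5-fold point.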
For orientation: In qPCR the cycle at which signal appears reflects the starting amount.

The melting point is the temperature of the solid-liquid transition. `CSc1ccc(-c2cc(=O)n3cc(N4CCNCC4)ccc3n2)cc1F` [Compound 168, 2-[3-fluoro-4-(methylsulfanyl)phenyl]-7-(piperazin-1-yl)-4H-pyrido[1,2-a]pyrimidin-4-one] displayed a melting point of 174 to 176 °C. The “maximum fold (Fold) increase of Smn protein” value (shortened to “maximum fold (Fold) increase”) in data set [1] is reported as “* (A maximum fold increase of ≤1.2 is indicated by one star (*))”. Also, in data set [2], the EC (1.5-fold increase) lay in the range of 0.3 to 1 µM.

In turn, `Cc1cn2cc(-c3cc(=O)n4cc(C5CCN(C)CC5)ncc4n3)ccc2n1` [Compound 579, 2-(2-methylimidazo[1,2-a]pyridin-6-yl)-7-(1-methylpiperidin-4-yl)-4H-pyrazino[1,2-a]pyrimidin-4-one] came in with a melting point of 277 to 280 °C. Also, in data set [1], the “EC1.5x for Smn protein expression” value was “*** (an EC1.5× between >0.3 μM and ≤1 μM is indicated by three stars (***))”; the “maximum fold (Fold) increase” value was “***** (a fold increase >1.65 is indicated by five stars (*****))”. For the same compound, the EC (1.5-fold increase) in data set [2] lay in the range of 0.1 to 0.3 µM.

As to `COc1ccc(-c2cc(=O)n3cc(N4CCCN(C)CC4)ccc3n2)cc1` [Compound 16, 2-(4-methoxyphenyl)-7-(4-methyl-1,4-diazepan-1-yl)-4H-pyrido[1,2-a]pyrimidin-4-one], the melting point fell in the range of 137 to 141 °C. In addition, the “maximum fold (Fold) increase” value in data set [1] is “* (A maximum fold increase of ≤1.2 is indicated by one star (*))”. Moreover, the EC (1.5-fold increase) in data set [2] lay within 1 to 3 µM.

The compound `Cc1nc2ccc(-c3cc(=O)n4cc(N5CCN6CCC[C@@H]6C5)ccc4n3)cc2o1` [Compound 198, 7-[(8aR)-hexahydropyrrolo[1,2-a]pyrazin-2(1H)-yl]-2-(2-methyl-1,3-benzoxazol-6-yl)-4H-pyrido[1,2-a]pyrimidin-4-one] had a melting point of 194 to 199 °C. Also, in data set [1], the “EC1.5x for Smn protein expression” value is “**** (an EC1.5x≤0.3 μM is indicated by four stars (****))”; the “maximum fold (Fold) increase” value is “**** (a fold increase between >1.5 and ≤1.65 is indicated by four stars (****))”. For the same compound, the EC (1.5-fold increase) in data set [2] was below 0.1 µM.

`Cc1cn2cc(-c3cc(=O)n4cc(N5CCN(C6CC6)[C@@H](C)C5)ccc4n3)cc(Cl)c2n1` [Compound 535, 2-(8-chloro-2-methylimidazo[1,2-a]pyridin-6-yl)-7-[(3S)-4-cyclopropyl-3-methylpiperazin-1-yl]-4H-pyrido[1,2-a]pyrimidin-4-one] showed a melting point of 253 to 257 °C. Also, in data set [1], the “EC1.5x for Smn protein expression” value was “*** (an EC1.5× between >0.3 μM and ≤1 μM is indicated by three stars (***))”; the “maximum fold (Fold) increase” value was “***** (a fold increase >1.65 is indicated by five stars (*****))”. For the same compound, the EC (1.5-fold increase) in data set [2] was below 0.1 µM.

`O=c1cc(-c2ccc(F)cc2)nc2ccc(N3CCNCC3)cn12` [Compound 46, 2-(4-fluorophenyl)-7-(piperazin-1-yl)-4H-pyrido[1,2-a]pyrimidin-4-one] returned a melting point of 214 to 218 °C. Moreover, in data set [1], the “maximum fold (Fold) increase” value was “*** (a fold increase between >1.35 and ≤1.5 is indicated by three stars (***))”. In addition, the EC (1.5-fold increase) in data set [2] is 1 to 3 µM.

For `Cc1cn2nc(-c3cc(=O)n4cc(N5CCN(CCO)[C@H](C)C5)cc(C)c4n3)cc2c(C)n1` [Compound 673, 2-(4,6-dimethylpyrazolo[1,5-a]pyrazin-2-yl)-7-[(3R)-4-(2-hydroxyethyl)-3-methylpiperazin-1-yl]-9-methyl-4H-pyrido[1,2-a]pyrimidin-4-one], the melting point is 273 to 281 °C. Further, in data set [1], the “EC1.5x for Smn protein expression” value was “**** (an EC1.5x≤0.3 μM is indicated by four stars (****))”; the “maximum fold (Fold) increase” value was “**** (a fold increase between >1.5 and ≤1.65 is indicated by four stars (****))”. Besides, the EC (1.5-fold increase) in data set [2] is below 0.1 µM.

As to `Cc1cn2cc(-c3cc(=O)n4cc(C5=CCN(C(C)C)CC5)ncc4n3)cc2c(C)n1` [Compound 479, 2-(1,3-dimethylpyrrolo[1,2-a]pyrazin-7-yl)-7-[1-(propan-2-yl)-1,2,3,6-tetrahydropyridin-4-yl]-4H-pyrazino[1,2-a]pyrimidin-4-one], the melting point lay in the range of 220 to 222 °C. Besides, the “maximum fold (Fold) increase” value in data set [1] was “** (a fold increase between >1.2 and ≤1.35 is indicated by two stars (**))”. Moreover, the EC (1.5-fold increase) in data set [2] was below 0.1 µM.

`CCc1nc(C)cn2nc(-c3cc(=O)n4cc(N5CCN[C@@H](C)C5)cc(C)c4n3)cc12` [Compound 787, 2-(4-ethyl-6-methylpyrazolo[1,5-a]pyrazin-2-yl)-9-methyl-7-[(3S)-3-methylpiperazin-1-yl]-4H-pyrido[1,2-a]pyrimidin-4-one] registered a melting point of 227 to 236 °C. In data set [1], the “EC1.5x for Smn protein expression” value is reported as “**** (an EC1.5x≤0.3 μM is indicated by four stars (****))” and the “maximum fold (Fold) increase” value is “***** (a fold increase >1.65 is indicated by five stars (*****))”. Also, the EC (1.5-fold increase) in data set [2] is below 0.1 µM.

The compound `CCN1CCN(c2cn3c(=O)cc(-c4ccc5nn(C)cc5c4)nc3cn2)CC1` [Compound 590, 7-(4-ethylpiperazin-1-yl)-2-(2-methyl-2H-indazol-5-yl)-4H-pyrazino[1,2-a]pyrimidin-4-one] yielded a melting point of 214 to 216 °C. Also, in data set [1], the “EC1.5x for Smn protein expression” value is “** (an EC1.5× between >1 μM and ≤3 μM is indicated by two stars (**))”; the “maximum fold (Fold) increase” value is “**** (a fold increase between >1.5 and ≤1.65 is indicated by four stars (****))”. Besides, the EC (1.5-fold increase) in data set [2] was 0.3 to 1 µM.

In the case of `COc1ccc(-c2cc(=O)n3cc(N4CCC(NCCO)CC4)cc(C)c3n2)cc1OC` [Compound 433, 2-(3,4-dimethoxyphenyl)-7-{4-[(2-hydroxyethyl)amino]piperidin-1-yl}-9-methyl-4H-pyrido[1,2-a]pyrimidin-4-one], the melting point was 185 to 193 °C. The “maximum fold (Fold) increase” value in data set [1] is “*** (a fold increase between >1.35 and ≤1.5 is indicated by three stars (***))”. The EC (1.5-fold increase) in data set [2] was below 0.1 µM.

In turn, `CCN1CCC(c2ccc3nc(-c4cc(Cl)c5nc(C)cn5c4)cc(=O)n3n2)CC1` [Compound 525, 2-(8-chloro-2-methylimidazo[1,2-a]pyridin-6-yl)-7-(1-ethylpiperidin-4-yl)-4H-pyrimido[1,2-b]pyridazin-4-one] came in with a melting point of 284 to 286 °C. Moreover, in data set [1], the “EC1.5x for Smn protein expression” value was “*** (an EC1.5× between >0.3 μM and ≤1 μM is indicated by three stars (***))”; the “maximum fold (Fold) increase” value is given as “***** (a fold increase >1.65 is indicated by five stars (*****))”. The EC (1.5-fold increase) in data set [2] lay within 0.1 to 0.3 µM.

For the compound `COc1ccc(-c2cc(=O)n3cc(N4CCN[C@H](C)C4)ccc3n2)cc1F` [Compound 86, 2-(3-fluoro-4-methoxyphenyl)-7-[(3R)-3-methylpiperazin-1-yl]-4H-pyrido[1,2-a]pyrimidin-4-one], the melting point is 175 to 178 °C. For the same compound, in data set [1], the “EC1.5x for Smn protein expression” value is reported as “**** (an EC1.5x≤0.3 μM is indicated by four stars (****))”; the “maximum fold (Fold) increase” value is “**** (a fold increase between >1.5 and ≤1.65 is indicated by four stars (****))”. Besides, the EC (1.5-fold increase) in data set [2] lay within 0.1 to 0.3 µM.

The compound `Cc1cn2cc(-c3cc(=O)n4cc(N5CCN(C(C)C)CC5)ccc4n3)cc(Cl)c2n1` [Compound 374, 2-(8-chloro-2-methylimidazo[1,2-a]pyridin-6-yl)-7-[4-(propan-2-yl)piperazin-1-yl]-4H-pyrido[1,2-a]pyrimidin-4-one] displayed a melting point of 287 to 292 °C. Further, in data set [1], the “EC1.5x for Smn protein expression” value is given as “**** (an EC1.5x≤0.3 μM is indicated by four stars (****))” and the “maximum fold (Fold) increase” value is recorded as “***** (a fold increase >1.65 is indicated by five stars (*****))”. Further, the EC (1.5-fold increase) in data set [2] was below 0.1 µM.

Turning to `COc1cnc(-c2cc(=O)n3cc(N4CCNCC4)ccc3n2)cc1OC` [Compound 199, 2-(4,5-dimethoxypyridin-2-yl)-7-(piperazin-1-yl)-4H-pyrido[1,2-a]pyrimidin-4-one], the melting point lay within 207 to 209 °C. For the same compound, in data set [1], the “EC1.5x for Smn protein expression” value is “** (an EC1.5× between >1 μM and ≤3 μM is indicated by two stars (**))”; the “maximum fold (Fold) increase” value was “**** (a fold increase between >1.5 and ≤1.65 is indicated by four stars (****))”. In data set [2], the EC (1.5-fold increase) was in the range of 0.3 to 1 µM.

In turn, `Cc1cn2cc(-c3cc(=O)n4nc(C5CCN(C)CC5)ccc4n3)cc(Cl)c2n1` [Compound 524, 2-(8-chloro-2-methylimidazo[1,2-a]pyridin-6-yl)-7-(1-methylpiperidin-4-yl)-4H-pyrimido[1,2-b]pyridazin-4-one] came in with a melting point of 289 to 291 °C. Further, in data set [1], the “EC1.5x for Smn protein expression” value was “*** (an EC1.5× between >0.3 μM and ≤1 μM is indicated by three stars (***))”; the “maximum fold (Fold) increase” value is reported as “***** (a fold increase >1.65 is indicated by five stars (*****))”. Further, in data set [2], the EC (1.5-fold increase) is 0.1 to 0.3 µM.

`Cc1nc2ccc(-c3cc(=O)n4cc(C5=CCN(CCO)CC5)ccc4n3)cc2s1` [Compound 393, 7-[1-(2-hydroxyethyl)-1,2,3,6-tetrahydropyridin-4-yl]-2-(2-methyl-1,3-benzothiazol-6-yl)-4H-pyrido[1,2-a]pyrimidin-4-one] returned a melting point of 178 to 180 °C. Moreover, in data set [1], the “EC1.5x for Smn protein expression” value is “*** (an EC1.5× between >0.3 μM and ≤1 μM is indicated by three stars (***))”; the “maximum fold (Fold) increase” value is “*** (a fold increase between >1.35 and ≤1.5 is indicated by three stars (***))”. Moreover, in data set [2], the EC (1.5-fold increase) is below 0.1 µM.
